Measurements from the NIST ThermoML archive (doi:10.1021/je700644s).

Columns and labels:
[1] = molar heat capacity at constant pressure; settings: 101.33 kPa, Crystal
[2] = Crystal; visual observation

N[C@@H](Cc1ccc(O)c(O)c1)C(=O)O [L-3,4-dihydroxyphenylalanine]
[1]
Settings | molar heat capacity at constant pressure [J/K/mol]
78.47 K | 71.34
79.83 K | 72.35
81.49 K | 73.75
83 K | 75.18
84.82 K | 76.68
86.63 K | 78.19
88.44 K | 79.6
89.94 K | 80.73
91.35 K | 82.27
93.06 K | 83.62
94.81 K | 84.79
97.14 K | 86.2
98.89 K | 87.89
100.72 K | 89.28
102.64 K | 90.78
104.71 K | 92.24
106.74 K | 93.97
108.74 K | 95.89
110.71 K | 97.8
112.66 K | 99.36
114.58 K | 101.07
116.47 K | 103
118.5 K | 104.72
120.65 K | 106.43
122.77 K | 108.44
124.86 K | 110.39
126.96 K | 112.16
129.01 K | 113.95
131.02 K | 115.5
133.03 K | 117.12
135.03 K | 118.6
136.99 K | 120.14
138.96 K | 121.84
140.87 K | 123.73
142.78 K | 125.45
144.7 K | 127.02
146.71 K | 128.82
148.67 K | 130.53
150.67 K | 132.25
152.73 K | 133.85
154.83 K | 135.87
156.88 K | 137.96
158.94 K | 139.53
160.94 K | 141.56
162.95 K | 143.5
164.96 K | 144.99
166.92 K | 146.4
168.93 K | 148.17
170.89 K | 150.21
172.8 K | 151.86
174.76 K | 153.4
176.68 K | 155.02
178.59 K | 156.36
180.49 K | 157.89
182.37 K | 159.54
184.4 K | 161.1
186.39 K | 162.67
188.35 K | 164.31
190.45 K | 165.92
192.51 K | 167.41
194.57 K | 169.47
196.6 K | 171.19
198.74 K | 173.02
200.73 K | 174.55
202.72 K | 176.35
204.75 K | 178.18
206.74 K | 179.9
208.73 K | 181.7
210.72 K | 183.49
212.57 K | 185.1
214.57 K | 186.74
216.49 K | 188.38
218.41 K | 190.07
220.37 K | 191.82
222.25 K | 193.7
224.06 K | 195.34
226.73 K | 197.52
229.58 K | 199.77
232.56 K | 202.63
235.59 K | 205.29
238.77 K | 207.95
241.76 K | 210.58
244.74 K | 212.99
247.73 K | 215.37
250.77 K | 218.1
253.75 K | 220.62
256.74 K | 223
259.76 K | 225.81
262.77 K | 228.18
265.75 K | 230.91
268.6 K | 233.5
271.68 K | 236.23
274.76 K | 239.03
277.82 K | 242.01
280.88 K | 244.64
283.92 K | 247.23
286.95 K | 249.5
289.94 K | 252.13
292.92 K | 255.42
295.76 K | 258.06
298.79 K | 261
301.77 K | 263.53
304.66 K | 266.35
307.79 K | 269.29
310.97 K | 272.35
313.95 K | 275.23
317.08 K | 278.06
320.26 K | 281.06
323.2 K | 284.12
325.79 K | 286.4
328.38 K | 288.56
331.07 K | 291.45
333.76 K | 293.85
336.37 K | 296.31
338.98 K | 299.04
341.74 K | 301.82
344.65 K | 304.77
347.41 K | 307.5
350.17 K | 309.96
352.94 K | 312.58
355.85 K | 315.2
358.46 K | 317.71
361.22 K | 320.33
363.98 K | 323.17
366.59 K | 325.79
369.35 K | 328.08
372.11 K | 330.75
374.87 K | 333.1
377.49 K | 335.94
380.09 K | 338.83
382.85 K | 341.72
385.61 K | 344.62
388.83 K | 347.29
391.44 K | 350.03
394.35 K | 352.91
396.81 K | 355.28
399.26 K | 357.83

Settings | Normal melting temperature [°C]
[2] | 277.00
